Experimental data from PMC9231348, “Bio-Oriented Synthesis of Novel (S)-Flurbiprofen Clubbed Hydrazone Schiff’s Bases for Diabetic Management: In Vitro and In Silico Studies” (Pharmaceuticals, 2022).

Tests used:
[1] = target: α-Glucosidase (E.C.3.2.1.20) (Saccharomyces cerevisiae, UniProt P53341); assay: In vitro α-glucosidase inhibition assay; assay type: biochemical
Sequence of α-Glucosidase (E.C.3.2.1.20) (P53341 whole entry): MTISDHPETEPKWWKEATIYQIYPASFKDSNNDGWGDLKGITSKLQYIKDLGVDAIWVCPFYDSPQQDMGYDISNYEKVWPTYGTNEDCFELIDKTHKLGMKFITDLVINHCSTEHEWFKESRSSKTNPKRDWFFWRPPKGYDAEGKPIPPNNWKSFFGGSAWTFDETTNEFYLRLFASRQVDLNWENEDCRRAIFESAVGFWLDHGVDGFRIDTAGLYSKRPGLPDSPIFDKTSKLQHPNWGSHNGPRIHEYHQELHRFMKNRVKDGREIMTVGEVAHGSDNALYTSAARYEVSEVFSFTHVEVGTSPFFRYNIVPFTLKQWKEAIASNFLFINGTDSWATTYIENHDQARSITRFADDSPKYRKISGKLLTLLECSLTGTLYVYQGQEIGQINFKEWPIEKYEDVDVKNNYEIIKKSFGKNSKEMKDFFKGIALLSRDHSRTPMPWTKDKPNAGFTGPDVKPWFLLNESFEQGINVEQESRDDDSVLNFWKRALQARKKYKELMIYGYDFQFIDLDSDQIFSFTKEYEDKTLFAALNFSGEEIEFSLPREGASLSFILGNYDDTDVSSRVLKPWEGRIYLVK
Procedure: α-Glucosidase (E.C.3.2.1.20) enzyme inhibition assay was developed by using 0.1 M phosphate buffer (pH 6.8) at 37 °C [39, 40, 41]. The enzyme (0.2 μ/mL) was incubated in phosphate-buffered saline with different concentrations of tested compounds at 37 °C for 15 min. […] Test compounds were substituted with DMSO-d6 (7.5% final) in the control. […] The % inhibition was calculated by using the following formula:
% Inhibition = 100 − (OD test well/OD control) × 100.

| melting point [°C] | α-glucosidase inhibitory activity (in words) [1] | Structure (SMILES) |
| --- | --- | --- |
| 139 to 140 |  | COc1cc(/C=N/NC(=O)C(C)c2ccc(-c3ccccc3)c(F)c2)cc(OC)c1OC (centres unmarked) [Compound 4a, (E)-2-(2-Fluoro-[1,1′-biphenyl]-4-yl)-N′-(3,4,5-trimethoxybenzylidene)propanehydrazide] |
| 145 to 147 |  | CC(C(=O)N/N=C/c1cccc([N+](=O)[O-])c1)c1ccc(-c2ccccc2)c(F)c1 (centres unmarked) [Compound 4b, (E)-2-(2-Fluoro-[1,1′-biphenyl]-4-yl)-N′-(3-nitrobenzylidene)propanehydrazide] |
| 133 to 135 |  | CC(C(=O)N/N=C/c1ccc(O)cc1O)c1ccc(-c2ccccc2)c(F)c1 (centres unmarked) [Compound 4c, (E)-N′-(2,4-Dihydroxybenzylidene)-2-(2-fluoro-[1,1′-biphenyl]-4-yl)propanehydrazide] |
| 154 to 155 |  | COc1cccc(/C=N/NC(=O)C(C)c2ccc(-c3ccccc3)c(F)c2)c1O (centres unmarked) [Compound 4d, (E)-2-(2-Fluoro-[1,1′-biphenyl]-4-yl)-N′-(2-hydroxy-3-methoxybenzylidene)propanehydrazide] |
| 144 to 145 |  | CCN(CC)c1ccc(/C=N/NC(=O)C(C)c2ccc(-c3ccccc3)c(F)c2)cc1 (centres unmarked) [Compound 4e, (E)-N′-(4-(Diethylamino)benzylidene)-2-(2-fluoro-[1,1′-biphenyl]-4-yl)propanehydrazide] |
| 126 to 127 | moderate-to-low activities | COc1ccc(/C=N/NC(=O)C(C)c2ccc(-c3ccccc3)c(F)c2)cc1O (centres unmarked) [Compound 4f, (E)-2-(2-Fluoro-[1, 1′-biphenyl]-4-yl)-N′-(3-hydroxy-4-methoxybenzylidene)propanehydrazide] |
| 166 to 168 |  | CC(C(=O)N/N=C/c1ccc(Br)cc1F)c1ccc(-c2ccccc2)c(F)c1 (centres unmarked) [Compound 4g, (E)-N′-(4-Bromo-2-fluorobenzylidene)-2-(2-fluoro-[1,1′-biphenyl]-4-yl)propanehydrazide] |
| 147 to 148 |  | CC(C(=O)N/N=C/c1cccc(Br)c1)c1ccc(-c2ccccc2)c(F)c1 (centres unmarked) [Compound 4h, (E)-N′-(3-Bromobenzylidene)-2-(2-fluoro-[1,1′-biphenyl]-4-yl)propanehydrazide] |
| 161 to 162 |  | CC(C(=O)NN=Cc1cc(Br)c(O)c(Br)c1)c1ccc(-c2ccccc2)c(F)c1 (centres unmarked) [Compound 4i, (E)-N′-(3,5-Dibromo-4-hydroxybenzylidene)-2-(2-fluoro-[1,1′-biphenyl]-4-yl)propane hydrazide] |
| 173 to 174 |  | CCOc1cc(/C=N/NC(=O)C(C)c2ccc(-c3ccccc3)c(F)c2)ccc1O (centres unmarked) [Compound 4j, (E)-N′-(3-Ethoxy-4-hydroxybenzylidene)-2-(2-fluoro-[1,1′-biphenyl]-4-yl)propanehydrazide] |
| 168 to 169 | moderate-to-low activities | CCC/C=N/NC(=O)C(C)c1ccc(-c2ccccc2)c(F)c1 (centres unmarked) [Compound 4k, (E)-N′-Butylidene-2-(2-fluoro-[1,1′-biphenyl]-4-yl)propanehydrazide] |
| 129 to 130 |  | CCCCC/C=N/NC(=O)C(C)c1ccc(-c2ccccc2)c(F)c1 (centres unmarked) [Compound 4l, (E)-2-(2-Fluoro-[1, 1′-biphenyl]-4-yl)-N′-hexylidenepropanehydrazide] |
| 131 to 132 |  | COc1ccccc1/C=N/NC(=O)C(C)c1ccc(-c2ccccc2)c(F)c1 (centres unmarked) [Compound 4m, (E)-2-(2-Fluoro-[1,1′-biphenyl]-4-yl)-N′-(2-methoxybenzylidene)propanehydrazide] |
| 168 to 170 | moderate-to-low activities | CC(C(=O)N/N=C/c1cccc2ccccc12)c1ccc(-c2ccccc2)c(F)c1 (centres unmarked) [Compound 4n, (E)-2-(2-Fluoro-[1,1′-biphenyl]-4-yl)-N′-(naphthalen-1-ylmethylene)propanehydrazide] |
| 176 to 177 |  | CC(C(=O)N/N=C/c1ccc(C(=O)O)cc1)c1ccc(-c2ccccc2)c(F)c1 (centres unmarked) [Compound 4p, (E)-4-((2-(2-(2-Fluoro-[1,1′-biphenyl]-4-yl)propanoyl)hydrazono)methyl)benzoic acid] |
| 152 |  | C/C(=N\NC(=O)C(C)c1ccc(-c2ccccc2)c(F)c1)c1ccc(O)cc1 (centres unmarked) [Compound 5a, (E)-2-(2-Fluoro-[1,1′-biphenyl]-4-yl)-N′-(1-(4-hydroxyphenyl)ethylidene)propanehydrazide] |
| 175 |  | C/C(=N\NC(=O)C(C)c1ccc(-c2ccccc2)c(F)c1)c1ccc([N+](=O)[O-])cc1 (centres unmarked) [Compound 5b, (E)-2-(2-Fluoro-[1,1′-biphenyl]-4-yl)-N′-(1-(4-nitrophenyl)ethylidene)propanehydrazide] |
| 187 |  | COc1ccc2c(c1)CCC/C2=N\NC(=O)C(C)c1ccc(-c2ccccc2)c(F)c1 (centres unmarked) [Compound 5c, (E)-2-(2-Fluoro-[1,1′-biphenyl]-4-yl)-N′-(6-methoxy-3,4-dihydronaphthalen-1(2H) -ylidene)propanehydrazide] |
| 181 | moderate-to-low activities | C/C(=N\NC(=O)C(C)c1ccc(-c2ccccc2)c(F)c1)c1ccccc1 (centres unmarked) [Compound 5f, (E)-2-(2-Fluoro-[1,1′-biphenyl]-4-yl)-N′-(1-phenylethylidene)propanehydrazide] |
| 179 | moderate-to-low activities | CC/C(=N\NC(=O)C(C)c1ccc(-c2ccccc2)c(F)c1)c1ccccc1 (centres unmarked) [Compound 5g, (E)-2-(2-Fluoro-[1,1′-biphenyl]-4-yl)-N′-(1-phenylpropylidene)propanehydrazide] |
| 177 |  | CC(C)/C(=N\NC(=O)C(C)c1ccc(-c2ccccc2)c(F)c1)c1ccccc1 (centres unmarked) [Compound 5h, (E)-2-(2-Fluoro-[1,1′-biphenyl]-4-yl)-N′-(2-methyl-1-phenylpropylidene)propanehydrazide] |
| 165 |  | CCCC/C(=N\NC(=O)C(C)c1ccc(-c2ccccc2)c(F)c1)c1ccccc1 (centres unmarked) [Compound 5i, (E)-2-(2-Fluoro-[1,1′-biphenyl]-4-yl)-N′-(1-phenylpentylidene)propanehydrazide] |
| 160 |  | C/C(=N\NC(=O)C(C)c1ccc(-c2ccccc2)c(F)c1)C1CC1 (centres unmarked) [Compound 5j, (E)-N′-(1-Cyclopropylethylidene)-2-(2-fluoro-[1,1′-biphenyl]-4-yl)propanehydrazide] |
| 183 |  | CCC/C(=N\NC(=O)C(C)c1ccc(-c2ccccc2)c(F)c1)c1ccccc1 (centres unmarked) [Compound 5k, (E)-2-(2-Fluoro-[1,1′-biphenyl]-4-yl)-N′-(1-phenylbutylidene)propanehydrazide] |
| 177 |  | CC(C(=O)NN=C1CCCCC1)c1ccc(-c2ccccc2)c(F)c1 (centres unmarked) [Compound 5l, N′-Cyclohexylidene-2-(2-fluoro-[1,1′-biphenyl]-4-yl)propanehydrazide] |
| 198 |  | COc1ccccc1/C(C)=N/NC(=O)C(C)c1ccc(-c2ccccc2)c(F)c1 (centres unmarked) [Compound 5m, (E)-2-(2-Fluoro-[1,1′-biphenyl]-4-yl)-N′-(1-(2-methoxyphenyl)ethylidene)propanehydrazide] |
| 192 |  | COc1ccc(/C(C)=N/NC(=O)C(C)c2ccc(-c3ccccc3)c(F)c2)cc1 (centres unmarked) [Compound 5n, (E)-2-(2-Fluoro-[1,1′-biphenyl]-4-yl)-N′-(1-(4-methoxyphenyl)ethylidene)propanehydrazide] |
